# Experiments:
# HDAC-1 = HDAC-1 protein levels (Westernblot, reference); assay type: cell-based; conditions: 1 mM VPA; FIG. 6A; in some experiments a transient induction
# Procedure: (§1) FIG. 6: (A) F9 teratocarcinoma or HEK293T embryonic kidney cells were exposed for indicated times to 1 mM VPA. Protein levels of HDAC-2 and HDACs 1 or 3 for reference (HDAC8; N-CoR and Sin3 as data not shown) were determined by Westernblot analysis. […] (C) The effect of other HDAC inhibitors on the amount of HDAC-2 protein was determined by using TSA (100 nM) in a time course analysis in F9 cells (left panel). The HDAC inhibitors TSA (100 nM), trapoxin (TPX, 10 nM), butyrate (1.5 mM) or MS275 (5 μM) were tested at a single time of exposure in HEK293T cells (right panel).
# HDAC-3 [1] = assay: HDAC-3 pulse-chase analysis in HEK293T cells; assay type: cell-based, human; conditions: VPA pretreatment, FIG. 8B
# Procedure: (§2) FIG. 8: Synthesis and degradation rate of HDAC-2 were analyzed by pulse metabolic labeling with ^35S-methionine and pulse-chase analyses. ^35S-labelled HDAC-2 was detected by HDAC-2 specific immune precipitation followed by SDS-PAGE separation and autoradiography. (A) Pulse labeling for 1 h was performed in F9 and HEK293T cells which had been left untreated or were pretreated with 1 mM VPA for 24 h. (B) For pulse chase analysis cells were left untreated or pretreated for 24 h with 1 mM VPA and labeled with ^35S-methionine for an additional hour in the absence or presence of VPA. After removal of ^35S-methionine and addition of non-labeled methionine the elimination of radiolabeled HDAC-2 was followed over a period of 6 h. A pulse chase analysis was also performed in HEK293T cells without VPA pretreatment and addition of VPA (indicated by the (+) row) only at the time when the chase period was started. From HEK293T cell extracts also HDAC-3 was precipitated for reference.
# HDAC-2 mRNA [2] = assay: HDAC-2 mRNA levels in HEK293T cells (Northern blot); assay type: cell-based, human; conditions: 1 mM VPA, FIG. 7
# Procedure: (§3) FIG. 7: F9 cells or HEK 293T cells were treated for indicated times with 1 mM VPA and the levels of HDAC-2 mRNA were determined by Northern blot analysis from 5 μg polyA^+ RNA.
# HDAC-2 [3] = assay: HDAC-2 protein levels in K562 leukemia cells; assay type: cell-based, human
# [4] = system: splenocytes from healthy mice; assay: Apoptosis of cultured normal splenocytes (propidium iodide staining); assay type: cell-based; conditions: VPA 1 mM, 48 hours, FIG. 3B
# Procedure: FIG. 3: (A) Secondary acute promyelocytic leukemias were induced in mice as described above. Leukemic mice were then treated with placebo (Ctrl), or VPA (400 mg/kg every 12 hours). Mice were sacrificed 48 hours after beginning of treatments, and then leukemic spleens were fixed and either stained for histological examination (hematoxylin-eosyn, left panels), or analyzed for the presence of apoptotic cells (TUNEL assay, right panels). (B) Secondary leukemias were obtained as above. Mice were sacrificed when leukemic invasion of peripheral organs was >75% (spleen). Splenocytes from healthy mice (taken as control, left panel), or from leukemic mice (>75% blasts, right panel) were put in culture and then treated with VPA (1 mM) for 48 hours. At the end of the treatment, apoptosis was measured by propidium iodide staining. The sub-G1 area indicates the hypodiploid DNA peak corresponding to cells with fragmented DNA undergoing apoptosis.
# acetylated histones = assay: Histone acetylation in spleen after in vivo treatment (Western blot, immunohistochemistry); design: species or system mice; conditions: for histone acetylation, spleen whole cell extracts: VPA 400 mg/kg, three and six hours, FIG. 2A
# Procedure: FIG. 2: (A) Secondary acute promyelocytic leukemias were induced in mice as described above. (A) Leukemic mice or healthy mice (Ctrl) were then treated with placebo or VPA (400 mg/kg) for three and six hours. Mice were then sacrificed, whole cell extracts were prepared from the spleen (with >70% leukemic infiltration), and analyzed by SDS-PAGE followed by Western blot analysis using commercially available antibodies against acetylated histone H3. (B) Immunohistochemistry analysis of VPA-treated leukemic mice using a monoclonal antibody against acetylated histones.
# HDAC-2 mRNA [5] = assay: HDAC-2 mRNA levels in F9 cells (Northern blot); assay type: cell-based, murine; conditions: 1 mM VPA, FIG. 7
# Procedure: as §3
# HDAC-2 [6] = assay: HDAC-2 protein levels in HEK293T cells (Westernblot); assay type: cell-based, human
# Procedure: as §1
# FIG. 9: (A) HEK293T cells were treated for 24 h with VPA or left untreated. The cell penetrating protease inhibitors pepstatin A, leupeptin, or ALLM were added as indicated at the time of VPA addition. (B) Proteasome inhibitors ALLN or MG-132 were added at the indicated concentrations 4 h before cells were harvested. Protein levels of HDAC-2 were determined by Westernblot analysis.
# HDAC-3 [7] = assay: HDAC-3 protein levels (Westernblot, reference); assay type: cell-based; conditions: 1 mM VPA; FIG. 6A; in some experiments a transient induction
# Procedure: as §1
# HDAC-2 [8] = assay: HDAC-2 protein levels in F9 teratocarcinoma cells (Westernblot); assay type: cell-based, murine
# Procedure: as §1
# HDAC-2 [9] = assay: HDAC-2 pulse labeling and pulse-chase analysis in F9 cells; assay type: cell-based, murine; conditions: 1 mM VPA pretreatment 24 h
# Procedure: as §2
# RLIM = RLIM protein levels in HEK293T cells (Westernblot); assay type: cell-based, human; conditions: 24 hours, VPA 0.5, 1.5 or 5 mM, TSA 30, 100 or 300 nM, FIG. 12
# Procedure: FIG. 12 (A) RLIM protein levels were determined by Westernblot analysis after treatment of HEK293T cells for 24 hours with the HDAC inhibitors VPA (0.5, 1.5, or 5 mM), TSA (30, 100 or 300 nM) or a combination of VPA (1.5 mM) and TSA (100 nM). Actin protein levels are shown as a control for equal loading. (B) RLIM protein levels were determined by Westernblot analysis after treatment of HEK293T cells for 24 hours with the HDAC inhibitor TSA (100 nM), the proteasome inhibitor ALLN (2.5 μM) or a combination of both. Actin protein levels are shown as a control for equal loading.
smiles,measurement,setting,value
"CCCC(CCC)C(=O)O [VPA, Valproic acid]",HDAC-1 protein levels,HDAC-1,not reduced
same,degradation of HDAC-3 (pulse-chase),HDAC-3 [1],not affected
same,HDAC-2 mRNA levels,HDAC-2 mRNA [2],no response of HDAC-2 mRNA levels
same,HDAC-2 protein levels,HDAC-2 [3],reduced
same,"apoptosis (propidium iodide, sub-G1)",[4],unable to induce apoptosis of normal splenocytes
same,"histone acetylation, spleen whole cell extracts",acetylated histones; leukemic mice (>70% leukemic infiltration),enhanced levels of histone acetylation
same,histone acetylation by immunohistochemistry,"acetylated histones; leukemic mice, monoclonal antibody against acetylated histones, FIG. 2B",dramatic increase of histone acetylation in all cells
same,"histone acetylation, spleen whole cell extracts",acetylated histones; normal mice,enhanced levels of histone acetylation
same,HDAC-2 mRNA levels,HDAC-2 mRNA [5],no response of HDAC-2 mRNA levels
same,HDAC-2 protein levels,"HDAC-2 [6]; HEK293T cells, VPA 1 mM, TSA 100 nM, trapoxin 10 nM, butyrate 1.5 mM, MS275 5 μM",reduced
same,HDAC-2 protein levels at higher doses,"HDAC-2 [6]; HEK 293T, VPA concentrations increased up to 5 or 10 mM, 36 h, FIG. 6B",slightly more pronounced reduction
same,HDAC-3 protein levels,HDAC-3 [7],not reduced
same,HDAC-2 protein levels relative to untreated cells,"HDAC-2 [8]; 1 mM VPA, 24 h, persists up to 48 h, FIG. 6A (F9 and HEK293T, cell line not given)",about 30%
same,HDAC-2 protein levels,"HDAC-2 [8]; F9 cells, VPA 1 mM, TSA 100 nM up to 48 h",reduced
same,HDAC-2 synthesis rate (35S-methionine pulse labeling),HDAC-2 [9]; FIG. 8A,No substantial difference in HDAC-2 synthesis rate
same,half-life of HDAC-2 (pulse-chase),HDAC-2 [9]; FIG. 8B,substantially decreased
same,RLIM protein levels / degradation,RLIM,"without changing expression of the E3 ubiquitin ligase, RLIM"
